Data set [1] deals with rat. Conditions: Subchronic oral toxicity in rodents, fischer, Water, dose end: 3 month, group: systemic, systemic / clinical chemistry / alanine aminotransferase (alt/sgpt) / alanine aminotransferase (alt/sgpt) + systemic / clinical chemistry / ….
For data set [2], the system named is mouse. Conditions: Subchronic oral toxicity in rodents, b6c3f1, Water, dose end: 3 month, group: systemic.
Data set [3] relates to rat. Conditions: Combined chronic toxicity/carcinogenicity, fischer, Oral, Water, dose end: 105 week, group: systemic.
The subject of data set [4] is mouse. To be noted: Combined chronic toxicity/carcinogenicity, b6c3f1, Oral, Water, dose end: 105 week, group: systemic.
The mark [5] stands for this setting: systemic / hematology / erythrocyte (rbc) count differential / erythrocyte (rbc) + systemic / hematology / hemoglobin (hgb) / hemoglobin (….
Setting [6] is: systemic / hematology / mean corpuscular hemoglobin (mch) / mean corpuscular hemoglobin (mch) + systemic / pathology microscopic / intestine….
Where [7] appears, read: systemic / pathology microscopic / liver / inflammation.
Where [8] appears, read: systemic / pathology microscopic / oral mucosa / squamous cell carcinoma + systemic / clinical chemistry / alanine aminotransferase (alt/….
[9] abbreviates: systemic / pathology microscopic / intestine small / adenoma + systemic / pathology microscopic / intestine small / carcinoma + systemic / ….
Setting [10] is: systemic / pathology microscopic / intestine small / hyperplasia + systemic / pathology microscopic / lymph node / infiltration cellular + ….

The text below walks through data of EPA's ToxRefDB 2.

The term LOAEL denotes the lowest dose or exposure tested at which an adverse effect was seen. The NOAEL is the highest tested level that showed no adverse finding.

Regarding `O.O.[Na+].[Na+].[O]=[Cr](=[O])([O-])[O][Cr](=[O])(=[O])[O-]` [Sodium dichromate(VI) dihydrate], the LEL in the data set on rat [1] was determined as 5 mg/kg/day; with mouse [2] (setting [6]), 9 mg/kg/day; in the data set on rat [3] (setting [7]) it was 0.7 mg/kg/day; with mouse [4] (setting [10]), 1.1 mg/kg/day. Also, the LOAEL in the data set on rat [1] is > 60 mg/kg/day; with mouse [2] (setting [5]), > 80 mg/kg/day; in the data set with rat [3] (setting [8]), > 17 mg/kg/day; in the data set on mouse [4] (setting [9]) it was > 17 mg/kg/day. Moreover, the NEL in the data set with rat [1] was < 5 mg/kg/day; in the data set on mouse [2] (setting [6]), < 9 mg/kg/day; in the data set on rat [3] (setting [7]) it was < 0.7 mg/kg/day; in the data set on mouse [4] (setting [10]), < 1.1 mg/kg/day. For the same compound, the NOAEL was ≥ 60 mg/kg/day in the data set with rat [1], ≥ 80 mg/kg/day in the data set with mouse [2] (setting [5]), ≥ 17 mg/kg/day in the data set on rat [3] (setting [8]) and ≥ 17 mg/kg/day in the data set on mouse [4] (setting [9]).
